According to patent EP0791056B1, “LIPID-CLEAVAGE ENZYME COMPLEX” (priority 1994, dated 1996):

Columns and labels:
[1] = tested on: Zellhomogenate humaner PBL; assay: Enzymatic cleavage of [14C]-AZT-DMDOPE by cell homogenates, TLC of metabolites; assay type: in vitro ADME, human
Procedure: Die Spaltung von AZT-DMDOPE wurde mit Hilfe eines Enzym-Assays mit [^14C]-AZT-DMDOPE und AZT-DMDOPE als Substrat untersucht. Als Enzymquelle wurden zunächst Zellhomogenate von CEM-SS-Zellen und humanen PBL verwendet. Tab.
Letztere wurden sowohl nach Stimulation mit PHA-M als auch in nichtstimuliertem Zustand direkt nach ihrer Isolierung homogenisiert und im Enzym-Assay eingesetzt.
Zur Herstellung der Zellhomogenate wurden Zellsuspensionen mit einer Dichte von 5 x10^7 Zellen/ml 50 mM Tris (pH 7.4) im Glashomogenisator mechanisch aufgeschlossen. Der Zellaufschluß wurde hierbei im Umkehr-Phasenkontrast-Mikroskop optisch kontrolliert. Tab.
Zunächst wurde 1 ml dieses Zellhomogenales in dem Enzym-Assay ohne vorherige Bestimmung der Proteinkonzentration eingesetzt.
Zur Gewährleistung einer Substratsättigung wurden weitere 50 nmol der nichtradioaktiv markierten Verbindung hinzugefügt. [^14C]-AZT-DMDOPE trägt die radioaktive Markierung im Thioetherlipidteil und erlaubt somit eine eindeutige Identifikation der potentiellen Metabolits [^14-C]DMDOP.
Die Ansätze wurden für 1, 3, 6 und 24 h im Wasserbad bei 37 °C inkubiert. Als Vergleich wurde ein Ansatz ohne Zugabe von Zellhomogenat mitgeführt. Anschließend wurden die Spaltprodukte mit Diethylether:2-Propanol (9:1, v/v) extrahiert und dünnschichtchromatographisch im IBA- und IBAE-System analysiert (Abb. 18). […]

[2] = tested on: stimulierten humanen PBL; assay: Intracellular concentrations of AZT and AZT nucleotides (radioimmunoassay) in stimulated human PBL; conditions: for maximale intrazelluläre Konzentrationen an freiem AZT: without alkaline phosphatase; for maximale Konzentrationen an AZT und phosphorylierten AZT-Nukleotiden: with alkaline phosphatase
Source text: Zur Bestimmung der intrazellulären Konzentrationen an AZT und/oder AZT-Nukleotiden nach Inkubation mit AZT-DMDOPE bzw. AZT wurden humane PBL aus "Buffy coat" isoliert.
Hierfür wurde "Buffy-coat" von gesunden Spendern gemischt und durch Zentrifugation in einem isotonischen Medium mit einer Dichte von 1.077 g/ml fraktioniert. Da mononukleare Blutzellen (Monozyten und Lymphozyten) eine geringere Dichte als Erythrozyten und polymorphkernige Granulozyten haben, bilden sie einen Ring an der Grenze zwischen Trennmedium und Probe und können mit Hilfe einer Pipette abgenommen werden. Erythrozyten und polymorphkernige Granulozyten sedimentieren aufgrund ihrer höheren Dichte durch das Medium und lassen sich somit von PBL separieren. Zur Stimulation der Zellproliferation wurde Phytohämaglutinin A (Mukoprotein) (PHA-M), der mitogene Lektinextrakt aus der roten Feuerbohne (Phaseolus vulgaris), eingesetzt. Phytohämagglutinin ist eine Familie von 5 Isolektinen, die als Tetramere vorliegen. Die Untereinheiten bestehen aus einem lymphozytenreaktiven Typ-L und einem erythrozytenreaktiven Typ-E. Typ-L hat eine hohe Affinität zu Lymphozytenoberflächenrezeptoren und ist somit verantwortlich für die mitogenen Eigenschaften. Die Stimulation der Lymphozyten wurde in KPMI 1640 Komplettmedium III für 72 h bei 37 °C und 5 % CO2 durchgeführt. Nach Beendigung der Stimulation wurden zur Erhöhung der Zellzahl die Zellen für weitere 24 h in RPMI 1640 Komplettmedium IV kultiviert.
Zur Bestimmung der intrazellulären Konzentrationen an AZT und AZT-Nukleotiden wurden die Zellen in RPMI 1640 Komplettmedium II mit einer Dichte von 1 x 10^6 Zellen/ml in Gewebekulturflaschen (50 ml/25 cm^2) überführt, und in Anwesenheit von 0.03 bzw. 0.3 µg AZT/ml (Charge 15) und 1 bzw. 10 µg AZT-DMDOPE/ml für 1 - 24 h inkubiert.
Die Kulturen wurden anschließend für 1, 3, 6 und 24 h bei 37 °C und 5 % CO2 inkubiert. AZT und seine Nukleotide wurden anschließend mit 60 % Methanol extrahiert. Die extrahierten Nukleotide wurden mit alkalischer Phosphatase quantitativ zu AZT dephosphoryliert, da nur AZT, nicht jedoch die entsprechenden Nukleotide mit Hilfe eines Radioimmuno-Assays detektiert werden kann.
Die Konzentrationen an intrazellulärem AZT, die mit Hilfe des Radioimmuno-Assays bestimmt wurden, setzten sich dementsprechend aus der des AZT und den der AZT-Nukleotide zusammen. Eine separate Quantifizierung der Konzentrationen an AZT-MP, AZT-DP und AZT-TP wurde nicht durchgeführt.
Diese Experimente wurden an stimulierten humanen PBL durchgeführt.
Hierfür wurden Zellsuspensionen mit einer Dichte von 10^6 Zellen/ml mit 1 bzw. 10 µg AZT-DMDOPE/ml für 6 bzw. 24 h bei 37 °C und 5 % CO2 inkubiert.
Zur quantitativen Bestimmung von AZT wurde ein kommerzieller ^125J-AZT RIA Test-Kit verwendet. Puffer und Lösungen wurden gemäß den Angaben des Herstellers angesetzt und im Test-Kit eingesetzt. Die Reaktionsansätze wurden nach untenstehendem Schema (Tab. ) pipettiert, vorsichtig gemischt und für 2 h bei Raumtemperatur inkubiert. Anschließend wurden zur Präzipitation des Komplexes aus ^125J-AZT und des AZT-Antikörpers (aus Kaninchen) 500 µl des Ziege-Anti-Kaninchen-Antikörpers hinzugefügt. Die Ansätze wurden gemischt und erneut bei Raumtemperatur für 30 min inkubiert.

[3] = tested on: Phospholipase D, Typ I, aus Kohl; assay: Enzymatic cleavage of AZT-DMDOPE, detection of cleavage products by thin-layer chromatography; assay type: biochemical; conditions: 10 mg AZT-DMDOPE in 0,1 M Tris, 0,1 mg enzyme, 15 h + 6 h at 37 °C; at the height of the lipid phosphate
Procedure: (§1) 10 mg (3'-Desoxy-3'-azidothymidin)-5'-phosphorsäure-(3-dodecyl-mercapto-2-decyl-oxy)-propylester (AZT-DMDOPE) werden in 0,5 ml 0,1 M Tris-Pufferlösung suspendiert und nach Zugabe des Enzyms (0,5 mg bei Phosphodiesterase und 0,1 mg bei Phospholipase/Nuclease) 15 Stunden bei 37 °C inkubiert. Anschließend wird die Lösung dünnschichtchromatographisch untersucht. Nach Zugabe von 5 Tropfen gesättigter NaHCO3-Lösung wurde weitere 6 Stunden bei 37 °C inkubiert und anschließend die Lösung dünnschichtchromatographisch untersucht.
(§2) Durch Dünnschichtchromatographie mit verschiedenen Elutionsmitteln wurde die Lösung hinsichtlich der Bildung der möglichen Spaltprodukte (AZT, AZT-monophosphat, DMDOP und Lipidmonophosphat) untersucht.
(§3) • a) Phospholipase C aus Bacillus cereus, 2000 U/0,5 ml, Boehringer Mannheim GmbH • b) Phospholipase D, Typ I, aus Kohl, 150 - 300 U/mg, Sigma • c) Phosphodiesterase aus Kalbsmilz, 2 U/mg, Boehringer Mannheim GmbH • d) Phosphodiesterase aus Schlangengift, Boehringer Mannheim GmbH • e) Nuclease aus Staphylococcus aureus, 15 000 U/mg, Boehringer Mannheim GmbH • f) LCE (Lipid-Cleavage-Enzyme)

[4] = tested on: LCE (Lipid-Cleavage-Enzyme); assay: as above; assay type: biochemical; conditions: 10 mg AZT-DMDOPE in 0,1 M Tris, 15 h + 6 h at 37 °C
Procedure: as §1, §2, §3

[5] = biological target: T1, Phospholipase C aus Bacillus cereus (Bacillus cereus, UniProt P09598); assay: as above; assay type: biochemical; conditions: 10 mg AZT-DMDOPE in 0,1 M Tris, 0,1 mg enzyme, 15 h + 6 h at 37 °C
T1 construct: purchased Boehringer Mannheim GmbH
Procedure: as §1, §2, §3

[6] = tested on: nichtstimulierten humanen PBL; assay: Intracellular concentrations of AZT and AZT nucleotides (radioimmunoassay) in non-stimulated human PBL; assay type: in vitro ADME
Source text: AZT wurden humane PBL aus "Buffy coat" isoliert.

[7] = 10 µg AZT-DMDOPE/ml, after 24 h

T1 sequence (P09598 39-283 limits assumed): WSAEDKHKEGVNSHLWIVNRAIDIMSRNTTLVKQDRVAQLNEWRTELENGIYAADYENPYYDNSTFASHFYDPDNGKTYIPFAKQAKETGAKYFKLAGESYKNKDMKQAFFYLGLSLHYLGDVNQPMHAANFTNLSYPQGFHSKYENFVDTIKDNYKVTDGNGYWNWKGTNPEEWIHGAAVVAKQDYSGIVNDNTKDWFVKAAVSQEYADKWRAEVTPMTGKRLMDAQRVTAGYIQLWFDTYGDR

`CCCCCCCCCCCCSCC(COP(=O)(O)OC[C@H]1O[C@@H](n2cc(C)c(=O)[nH]c2=O)C[C@@H]1N=[N+]=[N-])OCCCCCCCCCC` (some centres unmarked) [AZT-DMDOPE, (3'-Desoxy-3'-azidothymidin)-5'-phosphorsäure-(3-dodecyl-mercapto-2-decyloxy)-propylester] was tested, and the “Metabolisierung von AZT-DMDOPE” value [1] was “zu DMDOP und AZT-MP metabolisiert”, the “maximale intrazelluläre Konzentrationen an freiem AZT” value ([2]; 1 µg AZT-DMDOPE/ml, after 6 h) was 0.03 ng/10^6 Zellen and the “maximale Konzentrationen an AZT und phosphorylierten AZT-Nukleotiden” value ([2]; 1 µg AZT-DMDOPE/ml, after 24 h) was 3.85 ng/10^6 Zellen. For the same compound, the “maximale Konzentrationen an AZT und phosphorylierten AZT-Nukleotiden” value [2, 7] was 6.41 ng/10^6 Zellen, the “maximale intrazelluläre Konzentrationen an freiem AZT” value [2, 7] was 0.15 ng/10^6 Zellen and the “intrazellulärer Spiegel an AZT und seiner Nukleotiden, Verlauf” value ([2]; 1 bzw. 10 µg AZT-DMDOPE/ml, whole incubation time 1 - 24 h) was “stetig steigender”. For the same compound, the “intrazelluläre Spiegel im Vergleich zu AZT” value ([2]; after 24 h incubation, equipotent concentrations) was “identisch”, the “intrazelluläre Konzentrationen an AZT und AZT-Nukleotiden im Vergleich zur äquipotenten Konzentration an AZT” value ([2]; incubation time 18 - 48 h, further experiments) was “größer” and the “Fluoreszenzauslöschung DC” value [3] was “schwach”. The “Fluoreszenzauslöschung DC” value [4] was “positiv”, the “Fluoreszenzauslöschung DC” value [5] was “negativ” and the “maximale intrazelluläre Konzentrationen an AZT und AZT-Nukleotiden” value ([6]; 1 µg AZT-DMDOPE/ml) was 0.62 ng/10^6 Zellen. For the same compound, the “maximale intrazelluläre Konzentrationen an AZT und AZT-Nukleotiden” value ([6]; 10 µg AZT-DMDOPE/ml) was 4.74 ng/10^6 Zellen and the “intrazelluläre Konzentrationen an AZT und AZT-Nukleotiden im Vergleich zur äquipotenten Konzentration an AZT” value ([6]; whole incubation time) was “größer”.
